Measurements as given in paper PMC5927461, “Activation of host transient receptor potential (TRP) channels by praziquantel stereoisomers” (PLoS Neglected Tropical Diseases, 2018).
Blank lines part the entries; values can stand above or below the molecule they belong to.

Assays:
hTRPA1 [1] = biological target: T1, hTRPA1 (Homo sapiens, UniProt O75762); assay: Single cell confocal Ca2+ imaging (fluo-4) in transfected HEK293 cells; assay type: cell-based; design: host or cells: HEK293 (ATCC CRL-1573.3), transient; conditions: for Ca2+ response in hTRPA1 expressing cells: 100μM
T1 sequence (O75762 whole entry, the tested form may be a part): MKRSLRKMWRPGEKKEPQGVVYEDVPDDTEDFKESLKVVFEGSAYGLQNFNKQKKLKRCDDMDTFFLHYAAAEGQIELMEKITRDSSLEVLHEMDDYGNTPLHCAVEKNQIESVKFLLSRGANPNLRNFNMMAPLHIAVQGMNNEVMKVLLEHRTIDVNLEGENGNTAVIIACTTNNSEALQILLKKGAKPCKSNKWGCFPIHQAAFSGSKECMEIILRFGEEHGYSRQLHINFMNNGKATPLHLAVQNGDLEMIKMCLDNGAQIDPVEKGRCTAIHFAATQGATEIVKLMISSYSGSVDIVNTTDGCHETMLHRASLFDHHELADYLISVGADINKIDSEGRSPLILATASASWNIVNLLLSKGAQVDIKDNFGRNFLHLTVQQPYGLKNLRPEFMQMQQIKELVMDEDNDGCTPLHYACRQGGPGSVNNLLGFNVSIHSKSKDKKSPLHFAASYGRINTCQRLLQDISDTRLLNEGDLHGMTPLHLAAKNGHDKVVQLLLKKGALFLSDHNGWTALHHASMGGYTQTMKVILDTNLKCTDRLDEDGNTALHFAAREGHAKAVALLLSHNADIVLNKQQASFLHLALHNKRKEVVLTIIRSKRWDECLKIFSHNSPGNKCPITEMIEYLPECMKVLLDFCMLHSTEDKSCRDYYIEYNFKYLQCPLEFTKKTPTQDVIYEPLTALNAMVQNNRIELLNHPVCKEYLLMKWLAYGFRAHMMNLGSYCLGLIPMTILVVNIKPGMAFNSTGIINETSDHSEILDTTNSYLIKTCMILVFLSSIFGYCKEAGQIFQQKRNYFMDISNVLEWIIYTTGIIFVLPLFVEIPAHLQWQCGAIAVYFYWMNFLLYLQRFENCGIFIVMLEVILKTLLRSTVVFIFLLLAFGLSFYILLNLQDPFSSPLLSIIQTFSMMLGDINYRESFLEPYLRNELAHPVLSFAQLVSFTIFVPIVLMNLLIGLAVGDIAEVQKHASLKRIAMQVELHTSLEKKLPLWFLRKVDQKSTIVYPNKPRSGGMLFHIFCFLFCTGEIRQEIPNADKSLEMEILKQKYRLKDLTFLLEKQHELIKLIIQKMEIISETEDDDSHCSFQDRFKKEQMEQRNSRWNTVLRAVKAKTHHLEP
Description: (§1) Human TRPM8 cDNA was a VersaClone from R&D Systems (RDC0188). Plasmids encoding human TRPA1 and human TRPV1 cDNA were purchased from DNASU plasmid repository (HsCD00080227 and HsCD00081472, respectively). The TRP channel coding sequences were subcloned into pCS2+ to introduce a COOH-term myc tag using the InFusion HD method (Clontech), HindIII/XhoI restriction enzymes (NEB) and the following primers: TRPM8 F–TGGGGACGTCGGAGC-aagctt-[…]; TRPM8 R–AAATCGATGGGATGC-ctcgag-[…]; TRPA1 F-GGACGTCGGAGC-aagctt- atgaagcgcagcctgagg; TRPA1 R-TCGATGGGATGC-ctcgag-[…]; TRPV1 F–GGACGTCGGAGC-aagctt-[…]; TRPV1 R-TCGATGGGATGC-ctcgag-cttctccccggaagcgg (where upper case specifies vector-specific sequences, italics indicate restriction sites, and lower case indicates TRP channel specific sequences). Primers are listed in a 5’ to 3’ orientation.
(§2) HEK293 cells (ATCC CRL-1573.3) were cultured in DMEM supplemented with 10% fetal bovine serum (FBS), penicillin (100 units/ml), streptomycin (100 μg/ml), and L-glutamine (290 μg/ml). Cells were transiently transfected (Lipofectamine LTX, Thermo Fisher) at a density of 2x10^6 cells per T-25 cell-culture flask with TRP channel cDNA. For Ca^2+ imaging assays, HEK293 cells were seeded onto 8-chambered coverglass slides (Thermo Fisher, 115411PK), at a density of 1x10^4 cells one day prior to imaging. Cells were washed twice with HBSS, and incubated with fluo-4-AM (4μM), pluronic F127 (0.4%) and probenecid (2.5mM) for 25 minutes at room temperature. Cells were then washed twice with HBSS, and left at room temperature (30 minutes) for de-esterification. Dishes were mounted on an Olympus IX81 microscope and fluorescence changes (λex = 488nM, λem = 513±15nm bandpass filter) monitored using a Yogokawa spinning disk confocal (CSU-X-M1N) and an Andor iXon Ultra 888 EMCCD camera.

[2] = tested on: untransfected HEK293 cells; assay: Confocal Ca2+ imaging in untransfected HEK293 cells (control); assay type: cell-based, human; conditions: menthol 300μM, ±PZQ 100μM, ACh 100μM, capsaicin 1μM, AITC 100μM
Experimental: as §2

hTRPM8 = hTRPM8 (Homo sapiens, UniProt Q7Z2W7); assay: Single cell confocal Ca2+ imaging (fluo-4) in transfected HEK293 cells; assay type: cell-based; design: host or cells: HEK293 (ATCC CRL-1573.3), transient; conditions: for cytoplasmic Ca2+ signal in TRPM8 expressing cells: menthol 300μM, ±PZQ 100μM, (R)-PZQ or (S)-PZQ 50μM
Chain of hTRPM8 (Q7Z2W7 whole entry): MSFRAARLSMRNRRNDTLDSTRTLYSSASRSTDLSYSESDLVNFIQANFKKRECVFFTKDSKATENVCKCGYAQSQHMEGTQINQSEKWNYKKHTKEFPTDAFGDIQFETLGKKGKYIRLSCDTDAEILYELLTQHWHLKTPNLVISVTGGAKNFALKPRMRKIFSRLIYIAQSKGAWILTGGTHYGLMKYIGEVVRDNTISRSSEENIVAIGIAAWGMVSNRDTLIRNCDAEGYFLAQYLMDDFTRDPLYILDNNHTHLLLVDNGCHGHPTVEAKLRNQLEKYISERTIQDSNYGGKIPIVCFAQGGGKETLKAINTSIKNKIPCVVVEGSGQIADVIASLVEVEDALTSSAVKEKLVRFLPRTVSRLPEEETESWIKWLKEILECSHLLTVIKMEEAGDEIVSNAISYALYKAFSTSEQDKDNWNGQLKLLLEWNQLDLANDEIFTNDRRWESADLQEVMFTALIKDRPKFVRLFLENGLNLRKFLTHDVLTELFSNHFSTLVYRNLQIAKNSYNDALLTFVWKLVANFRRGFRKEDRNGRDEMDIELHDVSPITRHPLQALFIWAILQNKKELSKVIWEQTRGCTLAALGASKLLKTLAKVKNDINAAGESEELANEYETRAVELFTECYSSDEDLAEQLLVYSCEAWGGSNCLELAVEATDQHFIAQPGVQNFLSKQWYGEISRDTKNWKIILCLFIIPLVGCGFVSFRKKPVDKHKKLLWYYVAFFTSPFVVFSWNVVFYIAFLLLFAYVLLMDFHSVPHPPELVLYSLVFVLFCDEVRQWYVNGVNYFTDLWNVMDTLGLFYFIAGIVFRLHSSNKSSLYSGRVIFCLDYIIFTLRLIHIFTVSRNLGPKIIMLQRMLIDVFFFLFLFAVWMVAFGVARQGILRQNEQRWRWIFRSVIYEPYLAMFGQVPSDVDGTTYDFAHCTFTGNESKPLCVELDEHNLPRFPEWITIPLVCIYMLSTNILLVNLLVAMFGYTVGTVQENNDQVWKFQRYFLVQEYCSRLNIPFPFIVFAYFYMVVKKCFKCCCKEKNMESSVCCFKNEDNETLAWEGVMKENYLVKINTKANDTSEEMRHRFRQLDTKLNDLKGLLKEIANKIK
Description: as §1, §2

[3] = tested on: mouse mesenteric arteries; assay: Wire myography, mesenteric artery strips precontracted with high K+ (KPSS); conditions: for relaxation of KPSS-contracted vessel strips by TRPM8 agonists: wild type, menthol 300μM, icilin 50 μM, WS-12 50μM
[4] = tested on: mesenteric vessels isolated from a TRPM8 knockout mouse; assay: Wire myography, KPSS-contracted mesenteric vessels from TRPM8 knockout mice; conditions: TRPM8 KO; menthol 300μM, icilin 50μM, WS-12 50μM
TRPV1 = TRPV1 (Homo sapiens, UniProt Q8NER1); assay: Single cell confocal Ca2+ imaging (fluo-4) in transfected HEK293 cells; assay type: cell-based; design: host or cells: HEK293 (ATCC CRL-1573.3), transient
Chain of TRPV1 (Q8NER1 whole entry): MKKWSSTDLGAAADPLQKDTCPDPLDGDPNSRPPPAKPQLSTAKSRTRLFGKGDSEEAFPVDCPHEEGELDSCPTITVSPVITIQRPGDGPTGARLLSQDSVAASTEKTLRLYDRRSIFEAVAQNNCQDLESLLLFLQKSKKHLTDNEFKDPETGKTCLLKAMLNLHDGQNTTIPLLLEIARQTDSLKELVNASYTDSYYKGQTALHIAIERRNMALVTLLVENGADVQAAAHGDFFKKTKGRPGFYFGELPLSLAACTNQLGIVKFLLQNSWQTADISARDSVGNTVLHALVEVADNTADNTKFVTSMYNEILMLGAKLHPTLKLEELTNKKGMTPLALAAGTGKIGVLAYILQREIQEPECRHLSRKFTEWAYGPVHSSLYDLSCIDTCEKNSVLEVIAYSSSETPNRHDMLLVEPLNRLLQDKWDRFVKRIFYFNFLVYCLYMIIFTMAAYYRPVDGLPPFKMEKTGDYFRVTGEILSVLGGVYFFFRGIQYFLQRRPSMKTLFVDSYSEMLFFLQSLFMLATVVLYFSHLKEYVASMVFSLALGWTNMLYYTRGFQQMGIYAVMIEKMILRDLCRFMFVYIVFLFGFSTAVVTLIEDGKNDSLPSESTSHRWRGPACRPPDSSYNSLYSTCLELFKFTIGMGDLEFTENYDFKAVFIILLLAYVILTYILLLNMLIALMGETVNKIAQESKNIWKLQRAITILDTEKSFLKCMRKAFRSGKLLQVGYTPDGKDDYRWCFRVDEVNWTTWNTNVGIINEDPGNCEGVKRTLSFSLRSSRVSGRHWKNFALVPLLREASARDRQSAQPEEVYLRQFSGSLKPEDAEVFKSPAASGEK
Description: as §1, §2

hTRPC7 = biological target: T2, hTRPC7 (Homo sapiens, UniProt Q9HCX4); assay: TRP channel panel primary screen (membrane potential dye, stable HEK line); assay type: cell-based; conditions: 0.3-300μM; effects over the micromolar range
T2 sequence (Q9HCX4 1-862): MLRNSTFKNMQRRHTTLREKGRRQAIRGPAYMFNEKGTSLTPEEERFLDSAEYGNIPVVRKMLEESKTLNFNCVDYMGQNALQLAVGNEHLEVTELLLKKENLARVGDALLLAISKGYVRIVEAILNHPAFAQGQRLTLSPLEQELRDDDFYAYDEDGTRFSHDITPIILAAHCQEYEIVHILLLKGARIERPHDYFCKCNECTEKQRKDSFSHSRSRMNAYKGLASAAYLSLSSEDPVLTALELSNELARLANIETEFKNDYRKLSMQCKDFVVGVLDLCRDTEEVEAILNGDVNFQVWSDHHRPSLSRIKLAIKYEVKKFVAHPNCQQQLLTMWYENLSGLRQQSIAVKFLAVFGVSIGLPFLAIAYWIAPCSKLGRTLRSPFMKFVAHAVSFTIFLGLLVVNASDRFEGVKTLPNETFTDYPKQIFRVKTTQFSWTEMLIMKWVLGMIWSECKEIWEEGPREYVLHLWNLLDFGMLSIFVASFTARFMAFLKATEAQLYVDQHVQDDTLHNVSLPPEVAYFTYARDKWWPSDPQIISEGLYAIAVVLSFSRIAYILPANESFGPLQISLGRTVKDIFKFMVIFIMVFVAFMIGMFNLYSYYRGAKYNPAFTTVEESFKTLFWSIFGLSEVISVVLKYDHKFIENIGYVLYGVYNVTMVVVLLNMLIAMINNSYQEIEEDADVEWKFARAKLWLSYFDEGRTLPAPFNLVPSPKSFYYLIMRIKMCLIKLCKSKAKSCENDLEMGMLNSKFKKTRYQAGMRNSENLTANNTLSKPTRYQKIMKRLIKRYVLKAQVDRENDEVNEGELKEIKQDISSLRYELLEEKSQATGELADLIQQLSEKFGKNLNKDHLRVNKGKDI
Experimental: (§3) ±PZQ, (R)-PZQ and (S)-PZQ were screened against a panel of 17 human TRP channels (SB Drug Discovery, Glasgow). For all hTRPs, except for TRPM5, individual channel constructs were stably expressed in HEK cell lines. TRMP5 was expressed in a stable CHO cell line. In preparation for the assays, cells were trypsinized, counted and seeded (50,000 cells/well) in black, clear-bottomed 96 well plates and incubated overnight. The following day, cells were loaded with a fluorescent indicator (FLIPR Calcium 5 Assay kit for TRPA1, TRPV1, TRPV2, TRPV3, TRPV4, TRPV5, TRPC1, TRPM2, TRPM3 and TRPM8, or a membrane potential dye (FLIPR Membrane Potential Red Assay Kit for TRPC3, TRPC4, TRPC5, TRPC6, TRPC7, TRPM4 and TRPM5) prepared according to the manufacturer’s instructions in HEPES buffered Hank’s balanced salt solution (HBSS). Dye solution (10μl) was added to appropriate wells and incubated at 37°C for 1 hour. All assays were performed at room temperature. Compounds were tested at 0.3, 1, 3, 10, 30, 100μM and 300μM in triplicate in both agonist and antagonist mode to determine EC50 and IC50 values, which were compared with reference compounds. Compounds were screened at a final DMSO concentration of 0.5%. Plates were screened using a Flexstation (Molecular Devices, FX01138), monitoring fluorescence values every ~1.52 seconds. For ‘agonist mode’ testing, 10μl of the appropriate test compound, or standard agonist, was added after 20 seconds and fluorescence monitored for 2 minutes at λex = 485nm, λem = 525nm for Ca^2+ imaging and λex = 530nm, λem = 565nm for membrane potential measurements. For ‘antagonist mode’ testing, test compounds and standard inhibitors were added to appropriate wells and incubated for 10 minutes at room temperature prior to addition of standard agonist compound.

hTRPC3 = biological target: T3, hTRPC3 (Homo sapiens, UniProt Q13507); assay: as above; assay type: cell-based; conditions: 0.3-300μM; effects over the micromolar range
T3 sequence (Q13507 1-921): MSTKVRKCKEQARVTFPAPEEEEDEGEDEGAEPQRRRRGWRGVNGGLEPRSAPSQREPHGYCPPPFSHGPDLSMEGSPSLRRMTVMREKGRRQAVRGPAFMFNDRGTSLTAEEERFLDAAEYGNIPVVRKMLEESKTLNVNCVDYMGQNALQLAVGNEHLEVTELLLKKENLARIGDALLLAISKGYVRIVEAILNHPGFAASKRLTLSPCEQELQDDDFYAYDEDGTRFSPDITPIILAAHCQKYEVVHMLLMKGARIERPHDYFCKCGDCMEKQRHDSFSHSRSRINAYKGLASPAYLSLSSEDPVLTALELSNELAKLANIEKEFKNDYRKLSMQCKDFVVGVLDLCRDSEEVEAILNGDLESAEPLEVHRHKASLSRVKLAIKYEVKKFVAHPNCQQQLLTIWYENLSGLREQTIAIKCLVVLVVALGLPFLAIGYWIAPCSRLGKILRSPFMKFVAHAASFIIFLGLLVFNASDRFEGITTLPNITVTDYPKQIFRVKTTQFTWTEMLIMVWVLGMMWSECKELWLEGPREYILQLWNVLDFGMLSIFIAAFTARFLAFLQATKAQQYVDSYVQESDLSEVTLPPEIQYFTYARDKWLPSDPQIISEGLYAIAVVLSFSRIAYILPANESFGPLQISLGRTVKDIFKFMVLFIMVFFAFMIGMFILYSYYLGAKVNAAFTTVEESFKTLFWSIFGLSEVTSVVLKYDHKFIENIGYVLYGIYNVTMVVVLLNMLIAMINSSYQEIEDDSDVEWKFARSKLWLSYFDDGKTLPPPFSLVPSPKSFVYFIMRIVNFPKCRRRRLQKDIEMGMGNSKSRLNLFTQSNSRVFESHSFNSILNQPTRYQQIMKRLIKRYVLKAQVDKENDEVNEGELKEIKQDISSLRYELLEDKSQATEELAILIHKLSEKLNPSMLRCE
Experimental: as §3

hTRPA1 [5] = biological target: T1, hTRPA1; assay: TRP channel panel primary screen (FLIPR Calcium 5, stable HEK line); assay type: cell-based; conditions: 0.3-300μM; effects over the micromolar range
Experimental: as §3

block of AITC-evoked Ca2+ elevation (hTRPA1 [1]; preincubation, 1μM): blocked
block of ±PZQ-evoked Ca2+ responses (hTRPA1 [1]; preincubation, 1μM): blocked
Structure (SMILES): Cn1cnc2ncn(Cc3nc(CCc4ccc(Cl)cc4)no3)c(=O)c21 [AM-0902]

Structure (SMILES): CC1CCC(C(C)C)C(O)C1 (stereo not drawn) [menthol]
Ca2+ response in untransfected HEK293 cells [2]: neither ±PZQ or menthol elevated cytoplasmic Ca^2+ levels
menthol-evoked Ca2+ signals in Ca2+-free media (hTRPM8; 300μM, Ca2+-free media): not observed
cytoplasmic Ca2+ signal in TRPM8 expressing cells (hTRPM8): rapidly elevated cytoplasmic Ca^2+
relaxation of KPSS-contracted vessel strips by TRPM8 agonists [3]: completely relaxed
vasorelaxant effect in TRPM8 KO background [4]: persisted

Structure (SMILES): CC(=O)OCC[N+](C)(C)C [ACh, acetylcholine]
Ca2+ response in untransfected HEK293 cells [2]: caused Ca^2+ transients

Ca2+ signal in TRPV1 expressing cells (TRPV1; capsaicin 1μM, ±PZQ 100μM): evoked Ca^2+ signals
Structure (SMILES): COc1cc(CNC(=O)CCCC/C=C/C(C)C)ccc1O [capsaicin]
Ca2+ response in untransfected HEK293 cells [2]: neither the addition of the TRPV1 agonist capsaicin (1μM) nor addition of ±PZQ evoked a Ca^2+ response

Structure (SMILES): Cc1cccc(COc2ccccc2C(=O)N(CCCN)Cc2cccs2)c1 [AMTB]
block of Ca2+ transients evoked by (S)-PZQ or menthol (hTRPM8; AMTB 10μM added 30min before agonists): blocked

block of capsaicin-evoked Ca2+ signals (TRPV1; capsazepine 10μM): blocked
Structure (SMILES): Oc1cc2c(cc1O)CN(C(=S)NCCc1ccc(Cl)cc1)CCC2 [capsazepine]

Structure (SMILES): C=CCN=C=S [AITC, allyl isothiocyanate]
Ca2+ response in untransfected HEK293 cells [2]: without effect
Ca2+ response in hTRPA1 expressing cells (hTRPA1 [1]): elevation of cytoplasmic Ca^2+

Structure (SMILES): COc1ccc(NC(=O)[C@@H]2C[C@H](C)CC[C@H]2C(C)C)cc1 [WS-12]
relaxation of KPSS-contracted vessel strips by TRPM8 agonists [3]: completely relaxed
vasorelaxant effect in TRPM8 KO background [4]: persisted

Ca2+ response in hTRPA1 expressing cells (hTRPA1 [1]): activation of hTRPA1
cytoplasmic Ca2+ signal in TRPM8 expressing cells (hTRPM8): without effect
activity at hTRPC7 in primary screen (hTRPC7): activated
activity at hTRPC3 in primary screen (hTRPC3): activated
activity at hTRPA1 in primary screen (hTRPA1 [5]): activated
Structure (SMILES): O=C(C1CCCCC1)N1CC(=O)N2CCc3ccccc3[C@@H]2C1 [(R)-PZQ]
change in tension of KPSS-precontracted vessels ([3]; 50μM, bath application during KPSS-evoked contraction): initial, small contraction

Structure (SMILES): O=C1NC(c2cccc([N+](=O)[O-])c2)=CCN1c1ccccc1O [icilin]
relaxation of KPSS-contracted vessel strips by TRPM8 agonists [3]: completely relaxed
vasorelaxant effect in TRPM8 KO background [4]: persisted
